Source: PubChem BioAssay (NCI)
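Grown in 96-well plates, cells were treated for 48 hours with each compound at five concentrations. Insufficient inhibition: endpoint recorded as highest concentration tested. GI50 is the concentration that inhibits growth by half. Definition used: TGI = concentration required for complete inhibition of growth.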

How the values were obtained:
Assay in all cases: DTP human tumour cell line panel, 48 h
DU-145 prostate = tested on: DU-145 prostate
UACC-62 melanoma = tested on: UACC-62 melanoma
HS 578T breast = tested on: HS 578T breast
IGROV1 ovarian = tested on: IGROV1 ovarian
NCI-H23 lung = tested on: NCI-H23 lung
SF-539 CNS = tested on: SF-539 CNS
NCI-H522 lung = tested on: NCI-H522 lung
ACHN renal = tested on: ACHN renal
CAKI-1 renal = tested on: CAKI-1 renal
OVCAR-4 ovarian = tested on: OVCAR-4 ovarian
SNB-19 CNS = tested on: SNB-19 CNS
OVCAR-5 ovarian = tested on: OVCAR-5 ovarian
SR leukemia = tested on: SR leukemia
RPMI-8226 leukemia = tested on: RPMI-8226 leukemia
HT29 colon = tested on: HT29 colon
T-47D breast = tested on: T-47D breast
MOLT-4 leukemia = tested on: MOLT-4 leukemia
U251 CNS = tested on: U251 CNS
HOP-62 NSCLC = tested on: HOP-62 NSCLC
SF-268 CNS = tested on: SF-268 CNS
MDA-MB-231 breast = tested on: MDA-MB-231 breast
HCT-15 colon = tested on: HCT-15 colon
HCC-2998 colon = tested on: HCC-2998 colon
LOX IMVI melanoma = tested on: LOX IMVI melanoma
EKVX NSCLC = tested on: EKVX NSCLC
NCI-H460 lung = tested on: NCI-H460 lung
MALME-3M melanoma = tested on: MALME-3M melanoma
SW-620 colon = tested on: SW-620 colon
K-562 leukemia = tested on: K-562 leukemia
NCI/ADR-RES ovarian = tested on: NCI/ADR-RES ovarian
TK-10 renal = tested on: TK-10 renal
HL-60(TB) leukemia = tested on: HL-60(TB) leukemia
NCI-H226 lung = tested on: NCI-H226 lung
MDA-N = tested on: MDA-N
KM12 colon = tested on: KM12 colon
A498 renal = tested on: A498 renal
PC-3 prostate = tested on: PC-3 prostate
COLO 205 colon = tested on: COLO 205 colon
SF-295 CNS = tested on: SF-295 CNS
CCRF-CEM leukemia = tested on: CCRF-CEM leukemia
UACC-257 melanoma = tested on: UACC-257 melanoma
HCT-116 colon = tested on: HCT-116 colon
SK-MEL-5 melanoma = tested on: SK-MEL-5 melanoma
786-0 renal = tested on: 786-0 renal
HOP-92 NSCLC = tested on: HOP-92 NSCLC
SNB-75 CNS = tested on: SNB-75 CNS
SK-MEL-28 melanoma = tested on: SK-MEL-28 melanoma
SK-OV-3 ovarian = tested on: SK-OV-3 ovarian
MDA-MB-435 = tested on: MDA-MB-435
SK-MEL-2 melanoma = tested on: SK-MEL-2 melanoma
OVCAR-8 ovarian = tested on: OVCAR-8 ovarian
A549 NSCLC = tested on: A549 NSCLC
UO-31 renal = tested on: UO-31 renal
SN12C renal = tested on: SN12C renal
RXF 393 renal = tested on: RXF 393 renal
OVCAR-3 ovarian = tested on: OVCAR-3 ovarian
BT-549 breast = tested on: BT-549 breast
MCF7 breast = tested on: MCF7 breast
M14 melanoma = tested on: M14 melanoma

## O=C1C(=O)N(C23CC4CC(CC(C4)C2)C3)C(=S)N1c1ccccc1
DU-145 prostate
  TGI: > 100 µM
UACC-62 melanoma
  TGI: > 100 µM
HS 578T breast
  TGI: > 100 µM
IGROV1 ovarian
  TGI: > 100 µM
NCI-H23 lung
  TGI: > 100 µM
SF-539 CNS
  TGI: > 100 µM
NCI-H522 lung
  TGI: > 100 µM
ACHN renal
  TGI: > 100 µM
CAKI-1 renal
  TGI: > 100 µM
OVCAR-4 ovarian
  TGI: > 100 µM
SNB-19 CNS
  TGI: > 100 µM
OVCAR-5 ovarian
  TGI: > 100 µM
SR leukemia
  TGI: > 100 µM
RPMI-8226 leukemia
  TGI: > 100 µM
HT29 colon
  TGI: > 100 µM
T-47D breast
  TGI: > 100 µM
MOLT-4 leukemia
  TGI: > 100 µM
U251 CNS
  TGI: > 100 µM
HOP-62 NSCLC
  TGI: > 100 µM
SF-268 CNS
  TGI: > 100 µM
MDA-MB-231 breast
  TGI: > 100 µM
HCT-15 colon
  TGI: > 100 µM
HCC-2998 colon
  TGI: > 100 µM
LOX IMVI melanoma
  TGI: > 100 µM
EKVX NSCLC
  TGI: > 100 µM
NCI-H460 lung
  TGI: > 100 µM
MALME-3M melanoma
  TGI: > 100 µM
SW-620 colon
  TGI: > 100 µM
K-562 leukemia
  TGI: > 100 µM
NCI/ADR-RES ovarian
  TGI: > 100 µM
TK-10 renal
  TGI: > 100 µM
HL-60(TB) leukemia
  TGI: > 100 µM
NCI-H226 lung
  TGI: > 100 µM
MDA-N
  TGI: > 100 µM
KM12 colon
  TGI: > 100 µM
A498 renal
  TGI: > 100 µM
PC-3 prostate
  TGI: > 100 µM
COLO 205 colon
  TGI: > 100 µM
SF-295 CNS
  TGI: > 100 µM
CCRF-CEM leukemia
  TGI: > 100 µM
UACC-257 melanoma
  TGI: > 100 µM
HCT-116 colon
  TGI: > 100 µM
SK-MEL-5 melanoma
  TGI: > 100 µM
786-0 renal
  TGI: > 100 µM
HOP-92 NSCLC
  TGI: > 100 µM
SNB-75 CNS
  TGI: > 100 µM
SK-MEL-28 melanoma
  TGI: > 100 µM
SK-OV-3 ovarian
  TGI: > 100 µM
MDA-MB-435
  TGI: > 100 µM
SK-MEL-2 melanoma
  TGI: > 100 µM
OVCAR-8 ovarian
  TGI: > 100 µM
A549 NSCLC
  TGI: > 100 µM
UO-31 renal
  TGI: > 100 µM
SN12C renal
  TGI: > 100 µM
RXF 393 renal
  TGI: > 100 µM

## CCN(CC)CC(O)c1cc(-c2ccc(Cl)cc2)nc2cc(Cl)ccc12 (stereo unspecified)
DU-145 prostate
  GI50: 2.27 µM
  TGI: 5.04 µM
UACC-62 melanoma
  GI50: 1.62 µM
  TGI: 3.1 µM
HS 578T breast
  GI50: 2.51 µM
  TGI: 7.32 µM
OVCAR-3 ovarian
  GI50: 1.92 µM
  TGI: 4.05 µM
BT-549 breast
  GI50: 4.75 µM
  TGI: 14.8 µM
IGROV1 ovarian
  GI50: 0.518 µM
  TGI: 2.47 µM
NCI-H23 lung
  GI50: 1.79 µM
  TGI: 4.49 µM
SF-539 CNS
  GI50: 2.03 µM
  TGI: 4.63 µM
NCI-H522 lung
  GI50: 1.62 µM
  TGI: 3.14 µM
ACHN renal
  GI50: 1.64 µM
  TGI: 3.39 µM
CAKI-1 renal
  GI50: 1.21 µM
  TGI: 2.64 µM
OVCAR-4 ovarian
  GI50: 3.3 µM
  TGI: 10.6 µM
SNB-19 CNS
  GI50: 4.34 µM
  TGI: 16 µM
OVCAR-5 ovarian
  GI50: 2.11 µM
  TGI: 5.58 µM
SR leukemia
  GI50: 1.69 µM
  TGI: 3.52 µM
RPMI-8226 leukemia
  GI50: 2.43 µM
  TGI: 6.15 µM
HT29 colon
  GI50: 1.71 µM
  TGI: 3.66 µM
T-47D breast
  GI50: 2.53 µM
  TGI: 7.01 µM
MOLT-4 leukemia
  GI50: 1.68 µM
  TGI: 3.48 µM
U251 CNS
  GI50: 1.75 µM
  TGI: 3.34 µM
HOP-62 NSCLC
  GI50: 1.93 µM
  TGI: 4.05 µM
SF-268 CNS
  GI50: 2.69 µM
  TGI: 8.06 µM
MDA-MB-231 breast
  GI50: 1.4 µM
  TGI: 3.9 µM
HCT-15 colon
  GI50: 3.05 µM
  TGI: 9.26 µM
HCC-2998 colon
  GI50: 1.67 µM
  TGI: 3.1 µM
LOX IMVI melanoma
  GI50: 1.24 µM
  TGI: 2.51 µM
EKVX NSCLC
  GI50: 1.76 µM
  TGI: 8.04 µM
NCI-H460 lung
  GI50: 1.64 µM
  TGI: 3.17 µM
MALME-3M melanoma
  GI50: 1.78 µM
  TGI: 3.62 µM
SW-620 colon
  GI50: 1.73 µM
  TGI: 3.33 µM
K-562 leukemia
  GI50: 1.75 µM
  TGI: 3.55 µM
MCF7 breast
  GI50: 1.5 µM
  TGI: 2.9 µM
NCI/ADR-RES ovarian
  GI50: 2.25 µM
  TGI: 6.04 µM
TK-10 renal
  GI50: 1.65 µM
  TGI: 3.09 µM
HL-60(TB) leukemia
  GI50: 2.02 µM
  TGI: 3.74 µM
NCI-H226 lung
  GI50: 2.21 µM
  TGI: 7.15 µM
KM12 colon
  GI50: 1.7 µM
  TGI: 3.18 µM
A498 renal
  GI50: 2.95 µM
  TGI: 10.1 µM
PC-3 prostate
  GI50: 2.08 µM
  TGI: 5.98 µM
COLO 205 colon
  GI50: 1.65 µM
  TGI: 3.34 µM
M14 melanoma
  GI50: 1.83 µM
  TGI: 3.44 µM
SF-295 CNS
  GI50: 1.81 µM
  TGI: 3.37 µM
CCRF-CEM leukemia
  GI50: 2.52 µM
  TGI: 5.56 µM
UACC-257 melanoma
  GI50: 1.86 µM
  TGI: 3.61 µM
HCT-116 colon
  GI50: 1.65 µM
  TGI: 3.15 µM
SK-MEL-5 melanoma
  GI50: 1.61 µM
  TGI: 2.99 µM
786-0 renal
  GI50: 1.9 µM
  TGI: 3.41 µM
HOP-92 NSCLC
  GI50: 1.83 µM
  TGI: 7.38 µM
SNB-75 CNS
  GI50: 1.69 µM
  TGI: 7.14 µM
SK-MEL-28 melanoma
  GI50: 1.76 µM
  TGI: 3.21 µM
SK-OV-3 ovarian
  GI50: 3.44 µM
  TGI: 12 µM
MDA-MB-435
  GI50: 1.71 µM
  TGI: 3.32 µM
SK-MEL-2 melanoma
  GI50: 1.92 µM
  TGI: 3.63 µM
OVCAR-8 ovarian
  GI50: 1.96 µM
  TGI: 4.12 µM
A549 NSCLC
  GI50: 1.9 µM
  TGI: 3.63 µM
UO-31 renal
  GI50: 1.06 µM
  TGI: 3.27 µM
SN12C renal
  GI50: 2.96 µM
  TGI: 12.7 µM
RXF 393 renal
  GI50: 2.75 µM
  TGI: 7.32 µM
